Test results from patent publication US8877759B2, “Aminopyrazines as ATR kinase inhibitors” (Vertex Pharnaceuticals Incorporated, priority 2011, dated 2014).

molecular target: T1, full-length ATR (Homo sapiens, UniProt Q13535); assay: ATR Inhibition Assay (radioactive-phosphate incorporation); type: biochemical; details: not given
T1 construct: Assays were carried out at 25° C. in the presence of 5 nM full-length ATR
Experimental: Compounds were screened for their ability to inhibit ATR kinase using a radioactive-phosphate incorporation assay. Assays were carried out in a mixture of 50 mM Tris/HCl (pH 7.5), 10 mM MgCl2 and 1 mM DTT.
Assays were carried out at 25° C. in the presence of 5 nM full-length ATR. An assay stock buffer solution was prepared containing all of the reagents listed above, with the exception of ATP and the test compound of interest. […] The plate was pre-incubated for 10 minutes at 25° C. and the reaction initiated by addition of 15 μL [γ-33P]ATP (final concentration 10 μM).
The reaction was stopped after […] by the addition of 30 μL 0.1M phosphoric acid containing 2 mM ATP. A multiscreen phosphocellulose filter 96-well plate (Millipore, Cat no. MAPHN0B50) was pretreated with 100 μL 0.2M phosphoric acid prior to the addition of 45 μL of the stopped assay mixture. The plate was washed with 5×200 μL 0.2M phosphoric acid.
After removing mean background values for all of the data points, Ki(app) data were calculated from non-linear regression analysis of the initial rate data using the Prism software package (GraphPad Prism version 3.0cx for Macintosh, GraphPad Software, San Diego Calif., USA).

T1 sequence (Q13535 whole entry): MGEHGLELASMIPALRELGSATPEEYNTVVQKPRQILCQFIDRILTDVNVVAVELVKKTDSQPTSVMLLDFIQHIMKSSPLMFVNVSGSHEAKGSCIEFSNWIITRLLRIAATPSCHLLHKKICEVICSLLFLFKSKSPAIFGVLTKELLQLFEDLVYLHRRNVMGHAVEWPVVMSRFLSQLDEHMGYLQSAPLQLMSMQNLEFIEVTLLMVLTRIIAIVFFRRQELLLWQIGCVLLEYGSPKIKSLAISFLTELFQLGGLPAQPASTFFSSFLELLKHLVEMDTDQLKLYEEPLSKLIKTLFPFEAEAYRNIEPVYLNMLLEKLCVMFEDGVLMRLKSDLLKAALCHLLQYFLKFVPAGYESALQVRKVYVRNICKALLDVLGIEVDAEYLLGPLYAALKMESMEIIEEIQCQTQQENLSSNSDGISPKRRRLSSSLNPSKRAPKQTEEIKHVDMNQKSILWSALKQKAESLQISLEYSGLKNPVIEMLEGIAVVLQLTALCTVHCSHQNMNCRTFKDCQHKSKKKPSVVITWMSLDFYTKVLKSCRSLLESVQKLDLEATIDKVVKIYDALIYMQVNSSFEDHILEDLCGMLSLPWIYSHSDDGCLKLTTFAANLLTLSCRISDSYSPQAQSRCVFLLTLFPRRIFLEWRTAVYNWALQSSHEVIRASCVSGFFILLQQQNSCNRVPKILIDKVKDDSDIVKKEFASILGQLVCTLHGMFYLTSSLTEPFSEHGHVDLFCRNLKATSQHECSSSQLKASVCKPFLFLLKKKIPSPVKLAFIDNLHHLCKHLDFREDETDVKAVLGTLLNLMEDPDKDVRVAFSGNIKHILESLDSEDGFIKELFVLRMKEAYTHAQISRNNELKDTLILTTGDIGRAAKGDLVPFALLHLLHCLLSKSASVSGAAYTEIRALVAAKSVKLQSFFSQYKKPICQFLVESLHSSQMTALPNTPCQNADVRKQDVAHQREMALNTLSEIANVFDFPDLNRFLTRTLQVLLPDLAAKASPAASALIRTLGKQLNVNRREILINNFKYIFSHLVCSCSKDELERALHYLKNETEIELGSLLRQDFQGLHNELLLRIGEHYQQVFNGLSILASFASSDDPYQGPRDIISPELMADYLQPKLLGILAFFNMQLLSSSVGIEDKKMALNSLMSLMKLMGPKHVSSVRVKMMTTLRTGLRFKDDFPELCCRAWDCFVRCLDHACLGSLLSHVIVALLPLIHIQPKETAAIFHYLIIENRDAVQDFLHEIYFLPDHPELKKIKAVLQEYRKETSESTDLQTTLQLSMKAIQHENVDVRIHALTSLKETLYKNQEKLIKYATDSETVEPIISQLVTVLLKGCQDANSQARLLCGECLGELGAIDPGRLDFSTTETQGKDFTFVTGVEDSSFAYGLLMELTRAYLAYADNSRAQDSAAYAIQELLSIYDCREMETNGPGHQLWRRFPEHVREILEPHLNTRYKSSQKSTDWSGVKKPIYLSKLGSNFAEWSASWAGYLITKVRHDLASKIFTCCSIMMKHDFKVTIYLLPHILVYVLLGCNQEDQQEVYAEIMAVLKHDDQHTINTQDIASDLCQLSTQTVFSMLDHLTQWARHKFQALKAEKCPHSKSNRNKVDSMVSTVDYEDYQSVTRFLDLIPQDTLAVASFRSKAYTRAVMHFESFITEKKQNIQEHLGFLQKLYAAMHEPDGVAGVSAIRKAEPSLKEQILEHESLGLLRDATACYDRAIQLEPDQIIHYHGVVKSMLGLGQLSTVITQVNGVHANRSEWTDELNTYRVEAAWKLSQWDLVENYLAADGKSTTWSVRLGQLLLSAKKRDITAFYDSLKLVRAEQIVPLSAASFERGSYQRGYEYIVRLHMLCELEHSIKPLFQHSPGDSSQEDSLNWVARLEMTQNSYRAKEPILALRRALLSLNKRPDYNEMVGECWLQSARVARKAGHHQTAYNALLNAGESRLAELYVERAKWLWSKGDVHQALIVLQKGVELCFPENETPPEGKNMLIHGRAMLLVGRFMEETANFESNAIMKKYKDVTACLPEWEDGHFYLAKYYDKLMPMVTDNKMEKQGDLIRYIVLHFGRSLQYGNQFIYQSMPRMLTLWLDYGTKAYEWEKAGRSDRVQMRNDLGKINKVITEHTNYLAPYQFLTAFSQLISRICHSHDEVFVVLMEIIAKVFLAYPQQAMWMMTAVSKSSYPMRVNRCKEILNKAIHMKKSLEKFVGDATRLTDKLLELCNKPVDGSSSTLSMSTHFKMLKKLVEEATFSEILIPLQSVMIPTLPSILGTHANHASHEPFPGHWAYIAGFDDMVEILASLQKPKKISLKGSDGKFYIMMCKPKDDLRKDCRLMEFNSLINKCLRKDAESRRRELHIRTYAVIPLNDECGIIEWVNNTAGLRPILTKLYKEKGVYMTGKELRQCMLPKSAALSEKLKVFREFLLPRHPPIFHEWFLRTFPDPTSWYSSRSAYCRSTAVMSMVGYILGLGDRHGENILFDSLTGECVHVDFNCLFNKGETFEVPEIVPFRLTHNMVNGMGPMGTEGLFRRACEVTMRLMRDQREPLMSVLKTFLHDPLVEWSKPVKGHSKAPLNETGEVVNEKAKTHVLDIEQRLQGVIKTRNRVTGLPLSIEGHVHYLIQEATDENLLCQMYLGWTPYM

| Ki | Compound |
| --- | --- |
| < 1 nM | CNCCNc1ccc(-c2nnc(-c3nc(-c4ccnc(C(C)(C)C#N)c4)cnc3N)o2)cc1 [Compound I-117] |
| 20 to 100 nM | CN(C)CCNc1ccc(-c2nnc(-c3nc(-c4ccnc(C(C)(C)C#N)c4)cnc3N)o2)c(F)c1 [Compound I-103] |
| < 1 nM | CN1CCCC(C#N)(c2cc(-c3cnc(N)c(-c4cc(-c5ccccc5)no4)n3)ccn2)C1 (stereo not drawn) [Compound I-37, 3-[4-[5-amino-6-(3-phenylisoxazol-5-yl)pyrazin-2-yl]-2-pyridyl]-1-methyl-piperidine-3-carbonitrile] |
| < 1 nM | N#CCc1cc(-c2cnc(N)c(-c3cc(-c4ccc(CNC5CCOCC5)cc4)no3)n2)ccn1 [Compound I-136] |
| < 1 nM | CC(C)(C#N)c1cc(-c2cnc(N)c(-c3cc(-c4ccc(CNCC5COC5)cc4)no3)n2)ccn1 [Compound I-102] |
| < 1 nM | CC(C)(C(=O)NCCO)c1cc(-c2cnc(N)c(-c3cc(-c4ccccc4)no3)n2)ccn1 [Compound I-46, 2-[4-[5-amino-6-(3-phenylisoxazol-5-yl)pyrazin-2-yl]-2-pyridyl]-N-(2-hydroxyethyl)-2-methyl-propanamide] |
| < 1 nM | CN(C)C1CN(c2ccc(-c3nnc(-c4nc(-c5ccnc(C(C)(C)C#N)c5)cnc4N)o3)cc2)C1 [Compound I-131] |
| < 1 nM | CC(C)(C#N)c1cc(-c2cnc(N)c(-c3nnc(-c4ccc(N5CCNCC5)cc4)o3)n2)ccn1 [Compound I-73] |
| < 1 nM | CNCc1ccc(-c2cc(-c3nc(-c4ccnc(C(C)C#N)c4)cnc3N)on2)cc1 (stereo not drawn) [Compound I-49, 2-[4-[5-amino-6-[3-[4-(methylaminomethyl)phenyl]isoxazol-5-yl]pyrazin-2-yl]-2-pyridyl]propanenitrile] |
| < 1 nM | CC(C)(C#N)c1cc(-c2cnc(N)c(-c3nnc(-c4ccc(N5CCCC(N)C5)cc4)o3)n2)ccn1 (stereo not drawn) [Compound I-61] |
| < 1 nM | CNCc1ccc(-c2cc(-c3nc(-c4ccnc(C5(C(N)=O)CCOCC5)c4)cnc3N)on2)cc1 [Compound I-13, 4-[4-[5-amino-6-[3-[4-(methylaminomethyl)phenyl]isoxazol-5-yl]pyrazin-2-yl]-2-pyridyl]tetrahydropyran-4-carboxamide] |
| < 1 nM | CC(C)(C#N)c1cc(-c2cnc(N)c(-c3nnc(-c4ccc5c(c4)CNCC5)o3)n2)ccn1 [Compound I-55] |
| < 1 nM | CNCc1ccc(-c2cc(-c3nc(-c4ccnc(C(C)(C)C#N)c4)cnc3N)on2)cc1 [Compound I-1, 2-[4-[5-amino-6-[3-[4-(methylaminomethyl)phenyl]isoxazol-5-yl]pyrazin-2-yl]-2-pyridyl]-2-methyl-propanenitrile] |
| < 1 nM | CC(C)(C#N)c1cc(-c2cnc(N)c(-c3cc(-c4ccc(CNC5CC5)cc4)no3)n2)ccn1 [Compound I-48, 2-[4-[5-amino-6-[3-[4-[(cyclopropylamino)methyl]phenyl]isoxazol-5-yl]pyrazin-2-yl]-2-pyridyl]-2-methyl-propanenitrile] |
| 5 to 20 nM | CC(C)(C(=O)N1CCC1)c1cc(-c2cnc(N)c(-c3cc(-c4ccccc4)no3)n2)ccn1 [Compound I-47, 2-[4-[5-amino-6-(3-phenylisoxazol-5-yl)pyrazin-2-yl]-2-pyridyl]-1-(azetidin-1-yl)-2-methyl-propan-1-one] |

same assay, conditions: Ki(app); 5 nM full-length ATR, 10 μM [γ-33P]ATP, 800 μM target peptide, 25° C.

| Compound | ATR Ki |
| --- | --- |
| CC(C)(C#N)c1nccc(-c2cnc(N)c(-c3cc(-c4ccc(CNC5CCOCC5)cc4)no3)n2)c1F [Compound I-138] | +++ (Compounds with a Ki value >5 nM but ≦1 nM are marked with “+++.”) |
| CC(C)(C#N)c1cc(-c2cnc(N)c(-c3nnc(-c4ccc(N5CCC[C@H](N)C5)cc4)o3)n2)ccn1 [Compound I-64] | +++ (Compounds with a Ki value >5 nM but ≦1 nM are marked with “+++.”) |
| CC(C)(C(N)=O)c1cc(-c2cnc(N)c(-c3cc(-c4ccccc4)no3)n2)ccn1 [Compound I-45, 2-[4-[5-amino-6-(3-phenylisoxazol-5-yl)pyrazin-2-yl]-2-pyridyl]-2-methyl-propanamide] | +++ (Compounds with a Ki value >5 nM but ≦1 nM are marked with “+++.”) |
